In patent US20070275988A1, “Transition state structure and inhibitors of thymidine phosphorylases” (priority 2003, published 2007):

Tests used:
[1] = FUra versus FdUrd; cited from earlier work
angiogenesis = conditions: cited from earlier work
[2] = substrate: O=c1[nH]c(=O)n([C@H]2C[C@H](O)[C@@H](CO)O2)cc1[N+](=O)[O-]; assay: UV-Vis spectrophotometric thymidine phosphorylase assay with 5NdU as substrate; format: biochemical; conditions: other: substrate, pH 6.01
Experimental: Binding constants were determined by UV-Vis spectrophotometery using 2′-deoxy-5-nitrouridine (5NdU) as the substrate (Km=50 μM at pH 6.01). The reaction mixture consisted of inhibitor (approximately 1/10×Ki to 10×Ki), 50 mM MES (pH 6.01), 150 mM NaCl, 1 mM EDTA, 5 mM inorganic phosphate, and 250 μM 5NdU in a total of 1 ml. Thymidine phosphorylase was added to approximately 10 nM (1 nM enzyme was used for D723333-P) and the reaction was monitored at λ=347 nm for 30 min. At least five concentrations of inhibitor were used for each compound and experiments were repeated in triplicate. Initial rates were determined by a linear least-squares fit. The Ki for each compound was then determined using the following equation: [formula] where ν is the rate of reaction and V is the maximal rate in the absence of inhibitor.

Q: Which “fold less potent than FdUrd” value [1] does the source give for O=c1[nH]cc(F)c(=O)[nH]1 [FUra, 5-fluorouracil] here?
A: 100 to 1000 fold

Q: Which “antiangiogenic activity in vivo” value (angiogenesis) does the source give for N=C1CCCN1Cc1[nH]c(=O)[nH]c(=O)c1Cl [TPI] here?
A: some antiangiogenic activity in vivo

B1: Thymidine phosphorylase (Homo sapiens) (protein)
chain: APPAPGDFSGEGSQGLPDPSPEPKQLPELIRMKRDGGRLSEADIRGFVAAVVNGSAQGAQIGAMLMAIRLRGMDLEETSVLTQALAQSGQQLEWPEAWRQQLVDKHSTGGVGDKVSLVLAPALAACGCKVPMISGRGLGHTGGTLDKLESIPGFNVIQSPEQMQVLLDQAGCCIVGQSEQLVPADGILYAARDVTATVDSLPLITASILSKKLVEGLSALVVDVKFGGAAVFPNQEQARELAKTLVGVGASLGLRVAAALTAMDKPLGRCVGHALEVEEALLCMDGAGPPDLRDLVTTLGGALLWLSGHAGTQAQGAARVAAALDDGSALGRFERMLAAQGVDPGLARALCSGSPAERRQLLPRAREQEELLAPADGTVELVRALPLALVLHELGAGRSRAGEPLRLGVGAELLVDVGQRLRRGTPWLRVHRDGPALSGPQSRALQEALVLSDRAPFAAPSPFAELVLPPQQ
Q: Which Km [2] does the source give for B1 here?
A: 50 µM
